Results reported in patent publication US20080293647A1, “Combined Use Of Vitamin D Derivatives And Anti-Proliferative Agents For Treating Bladder Cancer” (priority 2004, published 2008).
“And” between values parts separate entries of the source, which are not always exact repeats. Equal values may be shown once. Read-outs that look alike come from different tables or passages of the source. One block for each molecule: values may come before it.

What was measured:
RT112 = test: Inhibition of cell proliferation, RT112 human bladder cancer cells (CyQuant); format: cell-based; settings: read-out: Bladder Cancer Cell Lines IC50 (μM) RT112
Experimental: (§1) After an additional 96-h culture, the medium was removed and the plates frozen at −80° C. Cell proliferation was evaluated using CyQuant cell proliferation assay kit from Molecular Probes (Eugene, Oreg.).

RT4 = test: Inhibition of cell proliferation, RT4 human bladder cancer cells (CyQuant); format: cell-based; settings: read-out: Bladder Cancer Cell Lines IC50 (μM) RT4
Experimental: as §1

T24 = test: Inhibition of cell proliferation, T24 human bladder cancer cells (CyQuant); format: cell-based; settings: read-out: Bladder Cancer Cell Lines IC50 (μM) T24
Experimental: as §1

[1] = test system: human bladder cancer cell lines; test: Combination of calcitriol with chemotherapeutic agents, bladder cancer cell line proliferation, combination index method; format: cell-based; settings: agent combined with calcitriol; combination index method (CalcuSyn)
Experimental: Proliferation was measured after an additional 96 h using CyQuant cell proliferation assay kit. Drug interactions (as shown in FIG. 1) were evaluated by the median-effect/isobologram method using CalcuSyn software (Biosoft, Cambridge, UK). Combination Indices (CI) were calculated using the non-constant ratio combination design, determining synergism or antagonism for each data point.

[2] = Stability/compatibility of epirubicin and calcitriol solution for intravesical instillation (HPLC-UV); format: physicochemical
Experimental: Approximately 12 mg of freeze-dried Farimorubicina® powder (approx. 2 mg of epirubicin) were dissolved in water to produce a concentrated stock solution. After vortexing, the concentrated stock was diluted 1:2 using a isotonic saline containing Tween 20 at 0.1% (w/v) to provide Sample B. After further vortexing, Sample B was stored at 4° C. until use. […] The solution was mixed and stored at −20° C. until use. 100 μl of the concentrated stock solution was then taken and diluted with 900 μl of isotonic saline containing Tween 20 0.1% (w/v). After shaking the sample was stored at 4° C. until use. […] Following mixing by vortexing, the sample was stored at 5° C. and analysed using HPLC chromatography after preparation (t=0) and after 2.5 hr (t=150 min). [table]

24-hydroxylase (CYP24) = test: Expression of 24-hydroxylase (CYP24) in human bladder cancer cell lines, Real Time RT-PCR; format: cell-based; settings: 100 nM, 2 h
[3] = Homo sapiens, RT-112, 96 h, 96-h culture
[4] = Homo sapiens, RT-4, 96 h, 96-h culture
[5] = Homo sapiens, T-24, 96-h culture
[6] = combination (calcitriol 50 μg/ml + epirubicin 1 mg/ml), t = 0 min
[7] = combination (calcitriol 50 μg/ml + epirubicin 1 mg/ml), t = 150 min, stored at 5° C.
[8] = single-component solution (epirubicin 1 mg/ml; calcitriol 100 μg/ml), HPLC peak area

Molecule: 1,25-Dihydroxy-21-16,23Z-diene-26,27-hexafluoro-19-nor-cholecalciferol
IC50 (RT112; 96-h culture): 24 µM | IC50 (RT4; 96-h culture): 20 µM | IC50 (T24; 96-h culture): 58.7 µM

Molecule: C=C1/C(=C\C=C2/CCC[C@]3(C)C(C4(C/C=C\C(O)(C(F)(F)F)C(F)(F)F)CC4)=CCC23)CC(O)C[C@@H]1F (stereo partly drawn) [1α-Fluoro-25-hydroxy-16,23Z-diene-20-cyclopropyl-26,27-hexafluoro-cholecalciferol]
IC50 (RT112; 96-h culture): 21 µM | IC50 (RT4; 96-h culture): 3.1 µM

IC50 (RT112; [3]): > 30 µM | IC50 (RT4; [4]): 9.9 µM
Molecule: CC(C)(O)CCCC1(C2=CCC3/C(=C/C=C4/CC(O)C[C@H](O)C4)CCC[C@]23C)CC1 (stereo partly drawn) [1α,25-Dihydroxy-16-ene-20-cyclopropyl-19-nor-cholecalciferol]

IC50 (RT112; [3]): 22.7 µM | IC50 (RT4; [4]): 5.2 µM
Molecule: C[C@]12CCC/C(=C\C=C3\CC(O)C[C@H](O)C3)C1CC=C2C1(CC#CC(O)(C(F)(F)F)C(F)(F)F)CC1 (stereo partly drawn) [14215-Dihydroxy-16-ene-20-cyclopropyl-23,41-yne-26,27-hexafluoro-19-nor-cholecalciferol]

Molecule: N.N.O=C([O-])C1(C(=O)[O-])CCC1.[Pt+2] [carboplatin]
Synergism or antagonism on bladder cancer cell proliferation in combination with calcitriol [1]: does not result in any additive or synergistic effect

IC50 (RT112; [3]): 25.5 µM | IC50 (RT4; [4]): 8.3 µM
Molecule: C=C1/C(=C\C=C2/CCC[C@]3(C)[C@@H]([C@@H](CCCC(C)(C)O)CCC(=O)C(C)(C)O)CC[C@@H]23)C[C@@H](O)C[C@@H]1O [1,25-dihydroxy-20S-21(3-hydroxy-3-methyl-butyl)-24-keto-cholecalciferol]

IC50 (RT112; [3]): 12 µM | IC50 (RT4; [4]): 16 µM | IC50 (T24; [5]): 28 µM
Molecule: C=C1/C(=C\C=C2/CCC[C@]3(C)C([C@@H](C)C/C=C/C(O)(CC)CC)=CC[C@@H]23)C[C@@H](O)C[C@@H]1F [1-alpha-fluoro-25-hydroxy-16,23E-diene-26,27-bishomo-20-epi-cholecalciferol]

IC50 (RT112; [3]): 9 µM | IC50 (RT4; [4]): 10 µM | IC50 (T24; [5]): 52.1 µM
Molecule: C=C1/C(=C\C=C2/CCC[C@@]3(C)C2CCC3C2(CCCC(C)(C)O)CC2)CC(OC(C)=O)C[C@@H]1OC(C)=O (stereo partly drawn) [1,3-Di-O-acetyl-1,25-dihydroxy-20-cyclopropyl-cholecalciferol]

IC50 (RT112; [3]): 10.6 µM | IC50 (RT4; [4]): 2.3 µM
Molecule: C=C1/C(=C\C=C2/CCC[C@]3(C)C(C4(C/C=C/C(O)(C(F)(F)F)C(F)(F)F)CC4)=CCC23)CC(O)C[C@@H]1O (stereo partly drawn) [1α,25-Dihydroxy-16-ene-20-cyclopropyl-23,24-E-ene-26,27-hexafluoro cholecalciferol]

IC50 (RT112; Homo sapiens, RT-112, 96-h culture): 44 µM | IC50 (RT4; Homo sapiens, RT-4, 96-h culture): 72 µM | IC50 (T24; [5]): 99.2 µM
Molecule: CC(C)(O)CCC[C@@H](CC[C@@H](O)C(C)(C)O)[C@H]1CC[C@H]2/C(=C/C=C3C[C@@H](O)C[C@H](O)C3)CCC[C@]12C [1,25-Dihydroxy-21-(2R,3-dihydroxy-3-methyl-butyl)-20S-19-nor-cholecalciferol]

IC50 (RT112; [3]): 13.8 µM | IC50 (RT4; [4]): 1.7 µM
Molecule: C=C1/C(=C\C=C2/CCC[C@]3(C)C(C4(CC#CC(O)(C(F)(F)F)C(F)(F)F)CC4)=CCC23)CC(O)C[C@@H]1O (stereo partly drawn) [1,25-Dihydroxy-16-ene-20-cyclopropyl-23,24-yne-26,27 hexafluoro-cholecalciferol]

IC50 (RT112; [3]): 25 µM | IC50 (RT4; [4]): 71 µM | IC50 (T24; [5]): 57.9 µM
Molecule: C=C1/C(=C\C=C2/CCC[C@@]3(C)C2CCC3C(CCCC(C)(C)O)CCC(O)C(C)(C)O)C[C@@H](O)C[C@@H]1O (stereo partly drawn) [1,25-Dihydroxy-21-(2R,3-dihydroxy-3-methyl-butyl)-20R-Cholecalciferol]

Area (230 nm) [2, 6]: 53425733 and 53877070 | Area (254 nm) [2, 6]: 44443024 and 44731107 | Area (230 nm) [2, 7]: 52245312 and 50817806 | Area (254 nm) [2, 7]: 43984488 and 43221785 | Area (230 nm) [2, 8]: 30443828 and 30511286 and 30555666 | Area (254 nm) [2, 8]: 23243121 and 23243599 and 23383366
Molecule: COc1cccc2c1C(=O)c1c(O)c3c(c(O)c1C2=O)C[C@@](O)(C(=O)CO)C[C@@H]3O[C@H]1C[C@H](N)[C@@H](O)[C@H](C)O1 [epirubicin]
Synergism or antagonism on bladder cancer cell proliferation in combination with calcitriol [1]: strong synergistic effect

Molecule: C=C1/C(=C\C=C2/CCC[C@]3(C)C(C4(CC#CC(O)(C(F)(F)F)C(F)(F)F)CC4)=CCC23)CC(O)C[C@@H]1F (stereo partly drawn) [1α-Fluoro-25-hydroxy-16-ene-20-cyclopropyl-23-yne-26,27-hexafluoro-cholecalciferol]
IC50 (RT112; 96-h culture): 16.9 µM | IC50 (RT4; 96-h culture): 3.6 µM

IC50 (RT112; [3]): 14.5 µM | IC50 (RT4; [4]): 4.6 µM
Molecule: C[C@]12CCC/C(=C\C=C3\CC(O)C[C@H](O)C3)C1CC=C2C1(C/C=C/C(O)(C(F)(F)F)C(F)(F)F)CC1 (stereo partly drawn) [1α,25-hydroxy-16-ene-20-cyclopropyl-23,24-E-ene-26,27-hexafluoro-19-nor-cholecalciferol]

Molecule: Nc1ccn([C@@H]2O[C@H](CO)[C@@H](O)C2(F)F)c(=O)n1 [gemcitabine]
Synergism or antagonism on bladder cancer cell proliferation in combination with calcitriol [1]: strong antagonistic effect

Molecule: C=C1/C(=C\C=C2/CCC[C@]3(C)C(C4(C/C=C/C(O)(C(F)(F)F)C(F)(F)F)CC4)=CCC23)CC(O)C[C@@H]1F (stereo partly drawn) [1α-Fluoro-25-hydroxy-16,23E-diene-20-cyclopropyl-26,27-hexafluoro-cholecalciferol]
IC50 (RT112; 96-h culture): 17 µM | IC50 (RT4; 96-h culture): 3.6 µM

Molecule: C=C1/C(=C\C=C2/CCC[C@]3(C)C([C@H](C)CCCC(C)(C)O)CC[C@@H]23)C[C@@H](O)C[C@@H]1O (stereo partly drawn) [1,25-Dihydroxycholecalciferol]
Expression of 24-hydroxylase (CYP24) (24-hydroxylase (CYP24)): up-regulation of CYP24 | IC50 (RT112; 96-h culture): 28.7 µM | IC50 (RT112; [3]): 19 µM | IC50 (RT4; 96-h culture): 26 µM | IC50 (RT4; [4]): 45 µM | Area (230 nm) [2, 6]: 2068192 and 1960823 | Area (254 nm) [2, 6]: 2710511 and 2589663 | Area (230 nm) [2, 7]: 2027619 and 1954501 | Area (254 nm) [2, 7]: 2674857 and 2572268 | Area (230 nm) [2, 8]: 3402919 and 3485146 | Area (254 nm) [2, 8]: 4981173 and 5116113

Molecule: COc1cccc2c1C(=O)c1c(O)c3c(c(O)c1C2=O)C[C@@](O)(C(=O)CO)C[C@@H]3O[C@H]1C[C@H](N)[C@H](O)[C@H](C)O1 [doxorubicin]
Synergism or antagonism on bladder cancer cell proliferation in combination with calcitriol [1]: strong synergistic effect

IC50 (RT112; [3]): 15.5 µM | IC50 (RT4; [4]): 3.3 µM
Molecule: C=C1/C(=C\C=C2/CCC[C@]3(C)C(C4(C/C=C\C(O)(C(F)(F)F)C(F)(F)F)CC4)=CCC23)CC(O)C[C@@H]1O (stereo partly drawn) [1α,25-Dihydroxy-16-ene-20-cyclopropyl-23,24-Z-ene-26,27-hexafluoro-cholecalciferol]

IC50 (RT112; [3]): > 30 µM | IC50 (RT4; [4]): 2.6 µM
Molecule: CC(C)(O)CCC[C@@H](CCC(=O)C(C)(C)O)[C@H]1CC[C@H]2/C(=C/C=C3C[C@@H](O)C[C@H](O)C3)CCC[C@]12C [1,25-dihydroxy-20S-21(3-hydroxy-3-methyl-butyl)-24-keto-19-nor-cholecalciferol]

Molecule: N.N.[Cl][Pt][Cl] [cisplatin]
Synergism or antagonism on bladder cancer cell proliferation in combination with calcitriol [1]: does not result in any additive or synergistic effect

IC50 (RT112; [3]): 6 µM | IC50 (RT4; [4]): 17 µM | IC50 (T24; [5]): 31 µM
Molecule: CC(=O)O[C@@H]1CC(=C/C=C2\CCC[C@]3(C)C([C@H](C)CCC(=O)C(C)(C)O)=CCC23)C[C@@H](OC(C)=O)C1 (stereo partly drawn) [1,3-O-Diacetyl-1,25-Dihydroxy-16-ene-24-Keto-19-nor-Cholecalciferol]

IC50 (RT112; [3]): 1 µM | IC50 (RT4; [4]): 62 µM | IC50 (T24; [5]): 69.4 µM
Molecule: C=C1/C(=C\C=C2/CCC[C@@]3(C)C2CCC3[C@@H](CCCC(C)(C)O)CCC(O)C(C)(C)O)C[C@@H](O)C[C@@H]1O (stereo partly drawn) [1,25-Dihydroxy-21(2R,3-dihydroxy-3-methyl-butyl)-20S-Cholecalciferol]

IC50 (RT112; [3]): 27.6 µM | IC50 (RT4; [4]): 2 µM
Molecule: C=C1/C(=C\C=C2/CCC[C@]3(C)C(C4(CCCC(C)(C)O)CC4)=CCC23)CC(O)C[C@@H]1O (stereo partly drawn) [1α,25-Dihydroxy-16-ene-20-cyclopropyl-cholecalciferol]

IC50 (RT112; [3]): 9.6 µM | IC50 (RT4; [4]): 2.2 µM
Molecule: C[C@]12CCC/C(=C\C=C3\CC(O)C[C@H](O)C3)C1CC=C2C1(C/C=C\C(O)(C(F)(F)F)C(F)(F)F)CC1 (stereo partly drawn) [1α,25-Dihydroxy-16-ene-20-cyclopropyl-23,24-f-ene-2627-hexafluoro-19-nor-cholecalciferol]
